Consider 17 molecules from patent publication EP4696691A1, “TRICYCLIC COMPOUND, AND PREPARATION METHOD THEREFOR AND USE THEREOF” (Shanghai Huilun Pharmaceutical Co., Ltd., priority 2023, dated 2024).

A short description of data set [1]: Pharmacokinetic behavior in mice (plasma concentration by LC-MS/MS). Format: in vivo. As to conditions: male ICR mice. The method, then:
Three healthy ICR mice (SPF grade, from Beijing Vital River Laboratory Animal Technology Co., Ltd.), male, weighing 18-25 g, were intravenously injected with a compound (1 mg/kg) at a volume of 5 mL/kg. The compound was prepared using 5% DMSO+10% Solutol+85% Saline (w/v), and the animals were not fasted before the experiment.
Three healthy ICR mice (SPF grade, from Beijing Vital River Laboratory Animal Technology Co., Ltd.), male, weighing 18-25 g, were intragastrically administered a compound (5 mg/kg) at a volume of 10 mL/kg. The compound was prepared using 5% DMSO+10% Solutol+85% Saline (w/v), and the animals were not fasted before the experiment.
Blood samples (about 0.05 mL each) were collected from the cheeks at 5 min, 15 min, 30 min, 1 h, 2 h, 4 h, 6 h, 8 h, and 24 h after intravenous administration, and at 5 min, 15 min, 30 min, 1 h, 2 h, 4 h, 6 h, 8 h, and 24 h after intragastrical administration, and anticoagulated with heparin sodium. Following collection, the blood samples were placed on ice and the plasma was centrifuged within 1 h (centrifugation conditions: 6,000 g, 3 min, 2 °C to 8°C). The concentration of the compounds in the plasma was determined by liquid chromatography tandem mass spectrometry. The plasma samples were stored in a -80°C freezer before analysis. With plasma concentration data at different time points, pharmacokinetic parameters were calculated by Phoenix WinNonlin8.2.0, and the results are shown in Table 4: Table 4

The target of data set [2] is T1, IRAK4-HiBiT fusion protein (Homo sapiens, UniProt Q9NWZ3).
T1 construct: K562 from ATCC
T1 sequence (Q9NWZ3 1-460): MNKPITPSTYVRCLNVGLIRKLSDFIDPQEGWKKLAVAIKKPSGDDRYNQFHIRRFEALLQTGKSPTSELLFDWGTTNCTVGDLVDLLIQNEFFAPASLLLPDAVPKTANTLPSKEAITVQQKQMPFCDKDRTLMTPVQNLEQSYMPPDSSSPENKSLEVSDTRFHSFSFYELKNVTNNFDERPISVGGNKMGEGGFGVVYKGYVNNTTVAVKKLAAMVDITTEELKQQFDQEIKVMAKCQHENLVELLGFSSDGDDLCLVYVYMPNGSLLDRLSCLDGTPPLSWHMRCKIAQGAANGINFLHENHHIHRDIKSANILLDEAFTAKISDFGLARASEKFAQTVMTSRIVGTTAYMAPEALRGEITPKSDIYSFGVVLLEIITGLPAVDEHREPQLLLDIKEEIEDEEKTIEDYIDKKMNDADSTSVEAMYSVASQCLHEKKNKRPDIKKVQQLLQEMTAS
Briefly: Detection of HiBiT-IRAK4 proteolysis levels in K562 IRAK4-HiBiT cells (Nano-Glo HiBiT Lytic assay). The data set is classed as cell-based. The method, then: Test Example 1 Detection of HiBiT-IRAK4 proteolysis levels in K562 IRAK4-HiBiT cells co-incubated with compounds of the present application • Reagents, devices, and consumables in experiments: • Nano-Glo Lytic Detection Assay, purchased from Promega; • EnVision, purchased from PerkinElmer; • Name of cell line: K562 IRAK4-HiBiT stable transformation cell strain (capable of stably expressing IRAK4-HiBiT fusion protein), constructed by Shanghai Bioduro Biologics Co., Ltd., where a K562 cell strain was purchased from ATCC. The culture medium is IMDM+10% FBS+1% P/S (volume percentage, where FBS is fetal bovine serum and P/S is Penicillin-Streptomycin, a 1:1 mixture of penicillin and streptomycin antibiotic solution (10,000 units/mL)).
Cell culture: K562 IRAK4-HiBiT cells were incubated at 37°C, and passaged every 2-3 d, with a seeding density of 200,000 cells/mL.
IRAK4-HiBiT proteolysis experiment: • Step 1: Cell seeding and treatment of compound • 1. A 10 mM compound mother liquor was prepared using DMSO, and a compound solution with a working concentration of 1,000 times (the highest working concentration is 10 µM, diluted 3.162 times, with a total of 10 concentration gradients) was prepared using Bravo automatic liquid processing platform. • 2. 40 nL of a compound working solution was transferred to a 384 well plate, and an equal volume of DMSO was added to positive control wells. • 3. 20 µL of a culture solution was added per well and shaken for 10 min. • 4.20 µL of a K562 IRAK4-HiBiT cell suspension was added per well (6,000 cells/well), and an equal volume of culture medium was added to negative control wells. • 5. The well plate was rotated at 1,000 rpm for 1 min. • 6. The cells were incubated in a 5% CO2 incubator at 37°C for 2 h or 6 h. • Step 2: HiBiT Lytic experiment • 1. The well plate was placed at room temperature to equilibrate for 30 min. • 2. 20 µL of Nano-Glo HiBiT Lytic reagent (trade name: Nano-Glo® HiBiT Lytic Detection Reagent) and the well plate was kept in the dark. • 3. The well plate was placed on an orbital shaker at 300 rpm for 5 min. • 4. The cells were incubated at room temperature for 10 min. • 5. The luminous value was read by Envision. • 6. Data was calculated and processed. Degradation degree%=(negative control - experimental well)/(negative control - positive control) * 100%. Using XL-fit software, a degradation curve was obtained by fitting using a 4 Parameter Logistic Model, and the values of Relative DC50 (nM) and Absolute DC50 (nM) were obtained.
Background: HiBiT is a short tag that completes a luciferase, so light tracks the accessible tagged protein.

Where [3] appears, read: Intragastric administration (5 mg/kg), 5 mg/kg.
Where [4] appears, read: Intravenous injection (1 mg/kg), 1 mg/kg.
Where [5] appears, read: 6 h incubation, read-out: Absolute DC50.
Where [6] appears, read: 6 h incubation, read-out: Relative DC50.
Setting [7] is: 2 h incubation, read-out: Absolute DC50.
The mark [8] stands for this setting: 2 h incubation, read-out: Relative DC50.

Where two headings read alike, the source gives them in different places.

One may read the Cmax as the peak of the concentration-time curve. What is called Vss is the apparent volume that relates the amount in the body to the concentration in plasma or blood.

In data set [1] (setting [3]), `CC(C)(O)c1cc2nn([C@H]3CC[C@H](CCN4CCN5c6ccc(C7(C)CCC(=O)NC7=O)cc6OC[C@H]5C4)CC3)cc2cc1NC(=O)c1cccc(C(F)(F)F)n1` (single isomer, unassigned) [Compound 120-b-1] gave an AUClast of 16903 ng·h/mL, a Cmax of 1457 ng/mL, a F% of 44.5% and a T1/2 of 5.32 h. In data set [1] (setting [4]), this molecule returned an AUClast of 7249 ng·h/mL, a CL of 2.10 mL/min/kg, a Cmax of 888 ng/mL and a Vss of 1.19 L/kg.

Take `COc1cc2nn([C@H]3CC[C@H](CCN4CCN5c6ccc(C7CCC(=O)NC7=O)cc6OCC5C4)CC3)cc2cc1C(=O)Nc1cccc(C(F)(F)F)n1` (some centres unmarked) [Compound 95]: in data set [2] (6 h incubation), the Dmax came to 97%. Further, the DC50 in data set [2] (setting [5]) is 3.87 nM; in data set [2] (setting [6]), 4.83 nM.

`COc1cc2nn(C3CCN(CCN4CCN5c6ccc(C7CCC(=O)NC7=O)cc6OCC5C4)CC3)cc2cc1NC(=O)c1cccc(C(F)(F)F)n1` (centres unmarked) [Compound 98] yielded a Dmax in data set [2] (6 h incubation) of 89%. In addition, the DC50 in data set [2] (setting [5]) was under 1 nM; in data set [2] (setting [6]), 0.2 nM.

`CC(C)(O)c1cc2nn([C@H]3CC[C@H](CCN4CCN5c6ccc(C7(C)CCC(=O)NC7=O)cc6OCC5C4)CC3)cc2cc1NC(=O)c1cccc(C(F)(F)F)n1` (some centres unmarked) [Compound 120] came in with a Dmax in data set [2] (2 h incubation) of 90%. Besides, the figures for the DC50 in data set [2] (setting [7]) and in data set [2] (setting [8]) were 39 nM and 27.8 nM, respectively.

Turning to `CC(C)(O)c1cc2nn([C@H]3CC[C@H](CCN4CCN5c6ncc(C7CCC(=O)NC7=O)cc6OCC5C4)CC3)cc2cc1NC(=O)c1cccc(C(F)(F)F)n1` (some centres unmarked) [Compound 2], the Dmax in data set [2] (6 h incubation) was found to be 96%. In addition, the DC50 came out at 6.32 nM in data set [2] (setting [5]) and 5.43 nM in data set [2] (setting [6]).

With `CC(C)(O)c1cc2nn([C@H]3CC[C@H](CCN4CCN5c6ccc(N7CCC(=O)NC7=O)cc6CCC5C4)CC3)cc2cc1NC(=O)c1cccc(C(F)(F)F)n1` (some centres unmarked) [Compound 118], the Dmax in data set [2] (2 h incubation) was 61%. Moreover, the DC50 in data set [2] (setting [7]) amounted to 4.62 nM; in data set [2] (setting [8]) it was 0.96 nM.

For the molecule `CC(C)(O)c1cc2nn(C3CCN(CCN4CCN5c6ccc(C7CCC(=O)NC7=O)cc6OCC5C4)CC3)cc2cc1NC(=O)c1cccc(C(F)(F)F)n1` (centres unmarked) [Compound 99], the Dmax in data set [2] (2 h incubation) is 66%. The DC50 in data set [2] (setting [7]) came to 40.3 nM; in data set [2] (setting [8]) it was 13.5 nM.

Molecule `CC(C)(O)c1cc2nn([C@H]3CC[C@H](CCN4CCN5c6ccc(C7(C)CCC(=O)NC7=O)cc6OCC5C4)CC3)cc2cc1NC(=O)c1ccc2cc(C#N)cnn12` (some centres unmarked) [Compound 126] had a Dmax in data set [2] (6 h incubation) of 97%. Also, the figures for the DC50 in data set [2] (setting [5]) and in data set [2] (setting [6]) were 10.8 nM and 12.3 nM, respectively.

Take `CC(C)(O)c1cc2nn([C@H]3CC[C@H](CN4CCC5(CC4)OCc4cc(C6CCC(=O)NC6=O)ccc45)CC3)cc2cc1NC(=O)c1cccc(C(F)(F)F)n1` (some centres unmarked) [Compound 114]: the Dmax in data set [2] (6 h incubation) came out at 85%. Also, the values for the DC50 in data set [2] (setting [5]) and in data set [2] (setting [6]) were 4.85 nM and 3.99 nM, respectively.

In turn, `CC(C)(O)c1cc2nn([C@H]3CC[C@H](CCN4CCN5c6ccc(C7CCC(=O)NC7=O)cc6OCCC5C4)CC3)cc2cc1NC(=O)c1cccc(C(F)(F)F)n1` (some centres unmarked) [Compound 130] had a Dmax in data set [2] (6 h incubation) of 97%. Also, the DC50 was found to be 8.13 nM in data set [2] (setting [5]) and 8.51 nM in data set [2] (setting [6]).

In turn, `CC(C)(O)c1cc2nn([C@H]3CC[C@H](CCN4CCN5c6ccc(C7CCC(=O)NC7=O)cc6CCC5C4)CC3)cc2cc1NC(=O)c1cccc(C(F)(F)F)n1` (some centres unmarked) [Compound 119] gave a Dmax in data set [2] (2 h incubation) of 93%. In addition, the DC50 in data set [2] (setting [7]) stood at 1.11 nM; in data set [2] (setting [8]) it was 1.02 nM.

In turn, `CC(C)(O)c1cc2nn([C@H]3CC[C@H](CCN4CC5(CCN6c7ccc(C8CCC(=O)NC8=O)cc7NC6C5)C4)CC3)cc2cc1NC(=O)c1cccc(C(F)(F)F)n1` (some centres unmarked) [Compound 115] showed a Dmax in data set [2] (6 h incubation) of 77%. Moreover, the DC50 is 146 nM in data set [2] (setting [5]) and 81.4 nM in data set [2] (setting [6]).

Take `CC(C)(O)c1cc2nn([C@H]3CC[C@H](CCN4CCN5c6ccc(N7CCC(=O)NC7=O)cc6OCC5C4)CC3)cc2cc1NC(=O)c1cccc(C(F)(F)F)n1` (some centres unmarked) [Compound 117]: the Dmax in data set [2] (6 h incubation) worked out at 89%. The results for the DC50 in data set [2] (setting [5]) and in data set [2] (setting [6]) were 11.7 nM and 10.3 nM, respectively.

In the case of `[2H]C1(c2ccc3c(c2)OCC2CN(CCC4CCC(n5cc6cc(NC(=O)c7cccc(C(F)(F)F)n7)c(C(C)(C)O)cc6n5)CC4)CCN32)CCC(=O)NC1=O` (centres unmarked) [Compound 101], in data set [2] (2 h incubation), the Dmax came to 87%. The DC50 in data set [2] (setting [7]) was determined as 7.2 nM; in data set [2] (setting [8]), 4.28 nM.

`CC(C)(O)c1cc2nn([C@H]3CC[C@H](CCN4CCN5c6ncc(N7CCC(=O)NC7=O)cc6OCC5C4)CC3)cc2cc1NC(=O)c1cccc(C(F)(F)F)n1` (some centres unmarked) [Compound 116]: the Dmax in data set [2] (6 h incubation) is 83%. The DC50 stood at 8.37 nM in data set [2] (setting [5]) and 4.48 nM in data set [2] (setting [6]).

As for `CC(C)(O)c1cc2nn([C@H]3CC[C@H](CCN4CCN5c6ccc(C7CCC(=O)NC7=O)cc6OCC5C4)CC3)cc2cc1NC(=O)c1ccc2cc(C#N)cnn12` (some centres unmarked) [Compound 129], the Dmax in data set [2] (6 h incubation) stood at 97%. Also, the DC50 is 4.41 nM in data set [2] (setting [5]) and 4.32 nM in data set [2] (setting [6]).

For the molecule `COc1cc2nn(C3CCN(CCN4CCC5(CC4)OCc4cc(C6CCC(=O)NC6=O)ccc45)CC3)cc2cc1NC(=O)c1cccc(C(F)(F)F)n1` (centres unmarked) [Compound 97], the Dmax in data set [2] (6 h incubation) is 93%. For the same molecule, the DC50 in data set [2] (setting [5]) turned out to be 1.64 nM; in data set [2] (setting [6]), 1.6 nM.
